# Measured values published in patent US10183943B2, “Heterocyclic compounds and their use in preventing or treating bacterial infections” (MUTABILIS, priority 2015, dated 2019).
# Where two headings read alike, the source gives them in different places.
# How the values were obtained:
# AmpC (P99) = AmpC (P99) (Enterobacter cloacae, UniProt P05364); test: β-lactamase inhibitory activity, determination of IC50 (nitrocefin hydrolysis)
# CTX-M-15 = molecular target: T1, CTX-M-15 (Escherichia coli, UniProt Q9EXV5); test: as above; format: biochemical; details: class (A); nitrocefin 200 μM, 30 min pre-incubation; read-out: IC50 β-lactamase CTX-M-15
# T1 construct: made in house; host or cells: E. coli
# OXA-1 = molecular target: T2, OXA-1 (Escherichia coli, UniProt P13661); test: as above; format: biochemical; details: class (D); nitrocefin 200 μM, 30 min pre-incubation; read-out: IC50 β-lactamase OXA-1
# T2 construct: made in house; host or cells: E. coli
# OXA-15 = molecular target: T3, OXA-15 (Pseudomonas aeruginosa, UniProt Q51574); test: biochemical
# T3 construct: made in house; host or cells: E. coli
# SHV-1 = molecular target: T4, SHV-1 (Klebsiella pneumoniae, UniProt P0AD64); test: β-lactamase inhibitory activity, determination of IC50 (nitrocefin hydrolysis); format: biochemical
# T4 construct: made in house; host or cells: E. coli
# OXA-11 = molecular target: T5, OXA-11 (Pseudomonas aeruginosa, UniProt Q06778); test: as above; format: biochemical
# T5 construct: made in house; host or cells: E. coli
# OXA-48 = molecular target: T6, OXA-48 (Klebsiella pneumoniae, UniProt Q6XEC0); test: as above; format: biochemical; details: class (D); nitrocefin 200 μM, 30 min pre-incubation; read-out: IC50 β-lactamase OXA-48
# T6 construct: made in house; host or cells: E. coli
# [1] = system: K. pneumoniae 6299 (TEM-1, SHV-11, OXA-163); test: MIC of compounds alone, broth microdilution; format: cell-based; details: strain 6299 (K. pneumoniae)
# Outline: (§1)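 Read-out: lowest compound concentration with no growth by visual inspection. CLSI M7-A7 broth microdilution, cation-adjusted Mueller-Hinton broth, inoculum 5×10^5 cfu/mL from log-phase culture, 16-20 h, 35° C, ambient air; compound tested without β-lactam.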
# E. cloacae P99 (AmpC) [2] = test: MIC of compounds alone, broth microdilution; format: cell-based; details: strain P99 (E. cloacae)
# Outline: as §1
# [3] = system: P. aeruginosa CIP107051 (TEM-24); test: MIC of compounds alone, broth microdilution; format: cell-based; details: strain CIP107051 (P. aeruginosa)
# Outline: as §1
# E. coli RGN238 (OXA-1) = test: MIC of compounds alone, broth microdilution; format: cell-based; details: strain RGN238 (E. coli)
# Outline: as §1
# [4] = system: E. coli 190317 (TEM-1, SHV-12, CTX-M-15, OXA-1); test: MIC of compounds alone, broth microdilution; format: cell-based; details: strain 190317 (E. coli)
# Outline: as §1
# [5] = system: K. pneumoniae BAA-1898 (TEM-1, SHV-11, SHV-12, KPC-2); test: MIC of compounds alone, broth microdilution; format: cell-based; details: strain BAA-1898 (K. pneumoniae)
# Outline: as §1
# [6] = system: E. coli 131119 (TEM-1, OXA-48); test: MIC of compounds alone, broth microdilution; format: cell-based; details: strain 131119 (E. coli)
# Outline: as §1
# AmpC P. aeruginosa = AmpC P. aeruginosa (Pseudomonas aeruginosa, UniProt P24735); test: β-lactamase inhibitory activity, determination of IC50 (nitrocefin hydrolysis)
# [7] = system: E. coli 190317 (TEM-1, SHV-12, CTX-M-15, OXA-1); test: microbe, parasite or virus in culture; format: cell-based; details: strain 190317; MIC of CAZ with compound fixed at 4 μg/mL
# Procedure: (§2) Method 2: MIC of Compounds and Synergy with Ceftazidime Against Bacterial Isolates (Table 2 and 3)
# (§3) Compounds of the present invention were assessed against genotyped bacterial strains alone or in combination with the β-lactam ceftazidime (CAZ). In the assays, MICs of said compounds, or of ceftazidime at fixed concentrations of said compounds were determined by the broth microdilution method according to the Clinical Laboratory Standards Institute (CLSI-M7-A7). Briefly, compounds alone according to the invention were prepared in DMSO and spotted (2 μL each) on sterile polystyrene plates (Corning, 3788). Compounds and ceftazidime dilutions were prepared in DMSO and spotted (1 μL each) on sterile polystyrene plates (Corning, 3788). Log phase bacterial suspensions were adjusted to a final density of 5×10^5 cfu/mL in cation-adjusted Mueller-Hinton broth (Becton-Dickinson) and added to each well (98 μL). Microplates were incubated for 16-20 h at 35° C. in ambient air. The MIC of the compounds was defined as the lowest concentration of said compounds that prevented bacterial growth as read by visual inspection. The MIC of ceftazidime at each compound concentration was defined as the lowest concentration of ceftazidime that prevented bacterial growth as read by visual inspection.
# [8] = system: K. pneumoniae 6299 (TEM-1, SHV-11, OXA-163); test: MIC of ceftazidime (CAZ) in combination with compounds at 4 μg/mL, broth microdilution; format: cell-based; details: strain 6299; MIC of CAZ with compound fixed at 4 μg/mL
# Procedure: as §2, §3
# E. cloacae P99 (AmpC) [9] = test: as above; format: cell-based; details: strain P99; MIC of CAZ with compound fixed at 4 μg/mL
# Procedure: as §2, §3
# [10] = system: P. aeruginosa CIP107051 (TEM-24); test: as above; format: cell-based; details: strain CIP107051; MIC of CAZ with compound fixed at 4 μg/mL
# Procedure: as §2, §3
# [11] = system: K. pneumoniae BAA-1898 (TEM-1, SHV-11, SHV-12, KPC-2); test: as above; format: cell-based; details: strain BAA-1898; MIC of CAZ with compound fixed at 4 μg/mL
# Procedure: as §2, §3
# [12] = molecular target: CMY-37 (Citrobacter freundii); test: β-lactamase inhibitory activity, determination of IC50 (nitrocefin hydrolysis); format: biochemical; details: class (C); nitrocefin 200 μM, 30 min pre-incubation
# KPC-2 = molecular target: T7, KPC-2 (Klebsiella pneumoniae, UniProt Q9F663); test: as above; format: biochemical; details: class (A); nitrocefin 200 μM, 30 min pre-incubation; read-out: IC50 β-lactamase KPC-2
# T7 construct: made in house; host or cells: E. coli
# TEM-1 = molecular target: T8, TEM-1 (Escherichia coli, UniProt P62593); test: as above; format: biochemical
# T8 construct: made in house; host or cells: E. coli
# [13] = system: K. pneumoniae UFR77 (CMY-2); test: MIC of compounds alone, broth microdilution; format: cell-based; details: Klebsiella pneumoniae; strain UFR77 (K. pneumoniae); read-out: MIC compounds of the invention alone
# Outline: as §1
# [14] = system: E. cloacae UFR51 (SHV-12, IMP-8); test: MIC of compounds alone, broth microdilution; format: cell-based; details: Enterobacter cloacae; strain UFR51 (E. cloacae); read-out: MIC compounds of the invention alone
# Outline: as §1
# [15] = system: K. oxytoca UFR21 (TEM-1, CTX-M-15, OXA-48); test: MIC of compounds alone, broth microdilution; format: cell-based; details: Klebsiella oxytoca, read-out: MIC compounds of the invention alone
# Outline: as §1
# [16] = system: E. cloacae UFR85 (TEM-1, CTX-M-15, AmpC); test: MIC of compounds alone, broth microdilution; format: cell-based; details: Enterobacter cloacae, read-out: MIC compounds of the invention alone
# Outline: as §1
# [17] = system: E. coli UFR74 (SHV-1, DHA-1); test: MIC of compounds alone, broth microdilution; format: cell-based; details: Escherichia coli; strain UFR74 (E. coli); read-out: MIC compounds of the invention alone
# Outline: as §1
# [18] = system: E. coli UFR18 (CTX-M-15, OXA-204); test: MIC of compounds alone, broth microdilution; format: cell-based; details: Escherichia coli; strain UFR18 (E. coli); read-out: MIC compounds of the invention alone
# Outline: as §1
# [19] = system: E. cloacae 260508 (TEM-1, CTX-M-15); test: MIC of compounds alone, broth microdilution; format: cell-based; details: Enterobacter cloacae, read-out: MIC compounds of the invention alone
# Outline: as §1
# [20] = system: E. coli UFR32 (TEM-1, VEB-1, OXA-10); test: MIC of compounds alone, broth microdilution; format: cell-based; details: Escherichia coli; strain UFR32 (E. coli); read-out: MIC compounds of the invention alone
# Outline: as §1
# [21] = system: E. coli UFR61O (TEM-1, KPC-2); test: MIC of compounds alone, broth microdilution; format: cell-based; details: Escherichia coli; strain UFR61O (E. coli); read-out: MIC compounds of the invention alone
# Outline: as §1
# [22] = system: K. pneumoniae UFR24 (TEM-1, SHV-2, SHV-11, OXA-1, OXA-48, OXA-47); test: MIC of compounds alone, broth microdilution; format: cell-based; details: Klebsiella pneumoniae; strain UFR24 (K. pneumoniae); read-out: MIC compounds of the invention alone
# Outline: as §1
# [23] = system: K. pneumoniae UFR39 (CTX-M-15, NDM-1); test: MIC of compounds alone, broth microdilution; format: cell-based; details: Klebsiella pneumoniae; strain UFR39 (K. pneumoniae); read-out: MIC compounds of the invention alone
# Outline: as §1
# [24] = system: E. cloacae UFR51 (SHV-12, IMP-8); test: MIC of ceftazidime (CAZ) in combination with compounds at 4 μg/mL, broth microdilution; format: cell-based; details: strain UFR51; MIC of CAZ with compound fixed at 4 μg/mL
# Procedure: as §2, §3
# [25] = system: E. coli UFR41 (TEM-1, CTX-M-15, CMY-2, OXA-1, NDM-4); test: as above; format: cell-based; details: strain UFR41; MIC of CAZ with compound fixed at 4 μg/mL
# Procedure: as §2, §3
# [26] = Escherichia coli, read-out: MIC compounds of the invention alone
# T1 sequence (Q9EXV5 entry or part of it): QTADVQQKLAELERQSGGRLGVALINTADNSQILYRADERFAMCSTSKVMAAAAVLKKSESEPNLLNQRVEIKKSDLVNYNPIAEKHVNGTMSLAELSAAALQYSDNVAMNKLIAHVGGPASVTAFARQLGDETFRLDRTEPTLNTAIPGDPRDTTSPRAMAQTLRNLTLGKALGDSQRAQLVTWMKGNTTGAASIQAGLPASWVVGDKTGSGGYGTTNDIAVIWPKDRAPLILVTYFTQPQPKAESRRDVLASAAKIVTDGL
# Chain of AmpC (P99) (P05364 21-381): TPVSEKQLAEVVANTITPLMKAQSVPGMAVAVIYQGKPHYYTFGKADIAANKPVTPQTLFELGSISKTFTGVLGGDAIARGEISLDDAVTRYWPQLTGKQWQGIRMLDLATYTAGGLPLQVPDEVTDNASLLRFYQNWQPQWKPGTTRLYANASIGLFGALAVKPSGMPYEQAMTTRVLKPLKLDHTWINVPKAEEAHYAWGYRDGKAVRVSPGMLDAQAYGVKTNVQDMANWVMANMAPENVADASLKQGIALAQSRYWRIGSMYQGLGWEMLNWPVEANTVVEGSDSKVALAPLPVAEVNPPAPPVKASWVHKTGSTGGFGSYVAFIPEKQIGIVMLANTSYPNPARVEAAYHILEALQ
# T3 sequence (Q51574 22-275): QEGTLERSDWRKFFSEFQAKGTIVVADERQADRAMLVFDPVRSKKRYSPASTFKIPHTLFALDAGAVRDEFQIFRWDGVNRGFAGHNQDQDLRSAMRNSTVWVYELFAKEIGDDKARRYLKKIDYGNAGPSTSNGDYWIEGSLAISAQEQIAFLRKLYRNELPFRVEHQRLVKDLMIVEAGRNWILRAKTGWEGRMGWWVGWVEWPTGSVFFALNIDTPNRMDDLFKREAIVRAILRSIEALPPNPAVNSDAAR
# T6 sequence (Q6XEC0 23-265 limits assumed): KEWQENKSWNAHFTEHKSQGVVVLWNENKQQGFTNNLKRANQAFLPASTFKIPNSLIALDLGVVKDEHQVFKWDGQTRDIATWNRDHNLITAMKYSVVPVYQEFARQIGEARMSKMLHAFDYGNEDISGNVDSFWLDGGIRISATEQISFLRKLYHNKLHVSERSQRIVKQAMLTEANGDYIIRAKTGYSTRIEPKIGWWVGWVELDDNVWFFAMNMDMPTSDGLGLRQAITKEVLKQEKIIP
# T2 sequence (P13661 26-276): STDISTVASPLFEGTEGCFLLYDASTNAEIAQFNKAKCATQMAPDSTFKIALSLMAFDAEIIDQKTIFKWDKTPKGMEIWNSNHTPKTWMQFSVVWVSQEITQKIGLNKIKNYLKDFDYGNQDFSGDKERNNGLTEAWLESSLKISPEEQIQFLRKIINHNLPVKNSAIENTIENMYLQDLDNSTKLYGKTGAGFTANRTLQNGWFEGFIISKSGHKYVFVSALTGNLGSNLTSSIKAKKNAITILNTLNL
# T8 sequence (P62593 24-286 limits assumed): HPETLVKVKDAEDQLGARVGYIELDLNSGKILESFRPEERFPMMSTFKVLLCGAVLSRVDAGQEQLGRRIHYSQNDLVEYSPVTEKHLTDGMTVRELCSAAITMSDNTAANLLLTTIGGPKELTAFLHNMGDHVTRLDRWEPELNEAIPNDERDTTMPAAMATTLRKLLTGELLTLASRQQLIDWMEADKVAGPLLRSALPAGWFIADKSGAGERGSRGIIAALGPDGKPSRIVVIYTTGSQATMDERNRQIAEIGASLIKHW
# T5 sequence (Q06778 21-266): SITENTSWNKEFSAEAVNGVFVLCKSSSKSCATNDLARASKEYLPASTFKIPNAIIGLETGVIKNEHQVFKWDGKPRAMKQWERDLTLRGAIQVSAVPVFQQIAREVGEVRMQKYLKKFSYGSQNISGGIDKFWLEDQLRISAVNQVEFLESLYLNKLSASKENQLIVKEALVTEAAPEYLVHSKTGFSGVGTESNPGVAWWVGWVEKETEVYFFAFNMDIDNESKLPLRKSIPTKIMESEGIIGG
# T7 sequence (Q9F663 25-293 limits assumed): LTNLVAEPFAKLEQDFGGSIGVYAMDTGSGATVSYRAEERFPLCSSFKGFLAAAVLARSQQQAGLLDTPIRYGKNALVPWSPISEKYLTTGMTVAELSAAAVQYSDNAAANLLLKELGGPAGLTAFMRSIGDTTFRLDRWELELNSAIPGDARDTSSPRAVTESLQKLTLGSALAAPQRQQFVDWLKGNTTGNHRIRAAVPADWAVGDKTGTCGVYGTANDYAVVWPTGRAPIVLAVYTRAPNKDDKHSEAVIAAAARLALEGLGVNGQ
# T4 sequence (P0AD64 22-286): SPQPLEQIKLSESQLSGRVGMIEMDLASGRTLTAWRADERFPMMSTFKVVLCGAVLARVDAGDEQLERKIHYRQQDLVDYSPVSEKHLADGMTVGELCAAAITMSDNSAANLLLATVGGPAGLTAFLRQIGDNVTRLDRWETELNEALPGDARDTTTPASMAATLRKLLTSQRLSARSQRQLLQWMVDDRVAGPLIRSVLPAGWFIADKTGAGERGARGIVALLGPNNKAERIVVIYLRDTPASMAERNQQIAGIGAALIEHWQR
# Chain of AmpC P. aeruginosa (P24735 27-397): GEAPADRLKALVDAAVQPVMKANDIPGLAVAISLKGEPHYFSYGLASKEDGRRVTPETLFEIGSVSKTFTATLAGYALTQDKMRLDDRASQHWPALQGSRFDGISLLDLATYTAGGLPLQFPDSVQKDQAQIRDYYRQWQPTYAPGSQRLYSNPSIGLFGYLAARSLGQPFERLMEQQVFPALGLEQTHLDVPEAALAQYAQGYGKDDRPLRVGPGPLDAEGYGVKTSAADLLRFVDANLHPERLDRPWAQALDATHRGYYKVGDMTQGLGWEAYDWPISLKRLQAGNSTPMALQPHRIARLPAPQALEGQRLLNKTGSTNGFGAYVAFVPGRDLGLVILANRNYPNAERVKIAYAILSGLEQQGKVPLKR
# Chain of CMY-37 (Citrobacter freundii) (A0A9R8 21-381): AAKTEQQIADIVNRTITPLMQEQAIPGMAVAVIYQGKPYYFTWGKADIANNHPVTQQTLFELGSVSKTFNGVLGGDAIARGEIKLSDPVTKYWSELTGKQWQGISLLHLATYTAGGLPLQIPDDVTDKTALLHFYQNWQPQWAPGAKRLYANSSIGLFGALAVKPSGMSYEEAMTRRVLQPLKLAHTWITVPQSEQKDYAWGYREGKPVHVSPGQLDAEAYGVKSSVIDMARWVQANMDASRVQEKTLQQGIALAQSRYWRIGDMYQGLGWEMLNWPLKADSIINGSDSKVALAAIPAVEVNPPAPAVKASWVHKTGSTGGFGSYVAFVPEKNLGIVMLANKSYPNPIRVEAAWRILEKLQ
structure (smiles),measurement,setting,value
"COC(=O)c1ncsc1C1=CCN2CC1N(OS(=O)(=O)[O-])C2=O.[Na+] (stereo not shown) [Example 22, Sodium [4-(4-(2-methoxy-2-oxo-methyl)-thiazol-5-yl)-7-oxo-1,6-diazabicyclo[3.2.1]oct-3-en-6-yl] sulfate]",IC50,"AmpC (P99); read-out: IC50 β-lactamase AmpC (P99), class (C), nitrocefin 200 μM, 30 min pre-incubation",160 nM
same,IC50,CTX-M-15,6.5 nM
same,IC50,OXA-1,68 nM
same,IC50,"OXA-15; class (D), nitrocefin 200 μM, 30 min pre-incubation, read-out: IC50 β-lactamase OXA-15",12 nM
same,IC50,"SHV-1; class (A), nitrocefin 200 μM, 30 min pre-incubation, read-out: IC50 β-lactamase SHV-1",19 nM
same,IC50,"OXA-11; class (D), nitrocefin 200 μM, 30 min pre-incubation, read-out: IC50 β-lactamase OXA-11",370 nM
same,IC50,OXA-48,3.9 nM
same,MIC compounds of the invention alone,[1],>32 µg/mL
same,MIC compounds of the invention alone,E. cloacae P99 (AmpC) [2],>32 µg/mL
same,MIC compounds of the invention alone,[3],>32 µg/mL
same,MIC compounds of the invention alone,E. coli RGN238 (OXA-1),>32 µg/mL
same,MIC compounds of the invention alone,[4],>32 µg/mL
same,MIC compounds of the invention alone,[5],>32 µg/mL
same,MIC compounds of the invention alone,[6],>32 µg/mL
same,IC50,"AmpC P. aeruginosa; read-out: IC50 β-lactamase AmpC (PAE), class (C), nitrocefin 200 μM, 30 min pre-incubation",5500 nM
same,MIC combination of CAZ and compounds of the invention at 4 μg/mL,[7],16 µg/mL
same,MIC combination of CAZ and compounds of the invention at 4 μg/mL,[8],128 µg/mL
same,MIC combination of CAZ and compounds of the invention at 4 μg/mL,E. cloacae P99 (AmpC) [9],128 µg/mL
same,MIC combination of CAZ and compounds of the invention at 4 μg/mL,[10],>128 µg/mL
same,MIC combination of CAZ and compounds of the invention at 4 μg/mL,[11],128 µg/mL
same,IC50,[12],84 nM
same,IC50,KPC-2,340 nM
same,IC50,"TEM-1; class (A), nitrocefin 200 μM, 30 min pre-incubation, read-out: IC50 β-lactamase TEM-1",5 nM
"O=C1N2CC(c3cccnc3)=CC(C2)N1OS(=O)(=O)[O-].[Na+] (stereo not shown) [Example 41, Sodium [3-(3-pyridyl)-7-oxo-1,6-diazabicyclo[3.2.1]oct-3-en-6-yl]sulfate]",IC50,AmpC (P99),40 nM
same,IC50,CTX-M-15,2.6 nM
same,IC50,OXA-1,1400 nM
same,IC50,OXA-15,150 nM
same,IC50,SHV-1,3.6 nM
same,IC50,OXA-11,840 nM
same,IC50,OXA-48,1.4 nM
same,MIC,[13],8 µg/mL
same,MIC,[14],4 µg/mL
same,MIC,[15],16 µg/mL
same,MIC,[16],16 µg/mL
same,MIC,[17],16 µg/mL
same,MIC,"[1]; Klebsiella pneumoniae, read-out: MIC compounds of the invention alone",16 µg/mL
same,MIC,"E. cloacae P99 (AmpC) [2]; Enterobacter cloacae, read-out: MIC compounds of the invention alone",8 µg/mL
same,MIC,"[3]; Pseudomonas aeruginosa, read-out: MIC compounds of the invention alone",> 32 µg/mL
same,MIC,[18],4 µg/mL
same,MIC,[19],16 µg/mL
same,MIC,E. coli RGN238 (OXA-1); [26],32 µg/mL
same,MIC,[20],8 µg/mL
same,MIC,[21],16 µg/mL
same,MIC,[22],16 µg/mL
same,MIC,"[5]; Klebsiella pneumoniae, BAA1898, read-out: MIC compounds of the invention alone",8 µg/mL
same,MIC,[6]; [26],4 µg/mL
same,MIC,[23],4 µg/mL
same,IC50,AmpC P. aeruginosa,190 nM
same,MIC combination of CAZ and compounds of the invention at 4 μg/mL,[24],<0.25 µg/mL
same,MIC combination of CAZ and compounds of the invention at 4 μg/mL,[25],<0.25 µg/mL
same,IC50,KPC-2,9 nM
same,IC50,TEM-1,1.8 nM
